Experimental data reported in patent US20120065187A1 (ALCON RESEARCH, LTD, priority 2008, published 2012).
Where a name gives a salt, the structure may show the parent alone.

Key:
human H1 = target: T1, human H1 (Homo sapiens, UniProt P35367); assay: In vitro histamine receptor cell-based assay (aequorin bioluminescence), H1 antagonism; conditions: CHO-K1 cells expressing human H1 and aequorin; histamine at EC80; read-out: H1 Antagonist EC50
T1 construct: host or cells: CHO-K1
How it was run: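 Stable CHO-K1 lines expressing human H1 or H4 (H4 with Gα16) plus mitochondrial aequorin, loaded 4 h with 5 μM coelenterazine-h at ~21 °C. Compounds preincubated 15 min, then histamine at EC80 added; bioluminescence decrease (AUC or max–min) expressed as % of positive control (diphenhydramine for H1, JNJ7777120 for H4, 10 μM).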

human H4 = target: T2, human H4 (Homo sapiens, UniProt Q9H3N8); assay: In vitro histamine receptor cell-based assay (aequorin bioluminescence), H4 antagonism; conditions: CHO-K1 cells expressing human H4, aequorin and Gα16; histamine at EC80; read-out: H4 Antagonist EC50
T2 construct: host or cells: CHO-K1
How it was run: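 CHO-K1 cells stably expressing human H4, Gα16 and mitochondrial aequorin, loaded with 5 μM coelenterazine-h, preincubated 15 min at room temperature with compound, then challenged with histamine at EC80.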

T1 sequence (P35367 whole entry): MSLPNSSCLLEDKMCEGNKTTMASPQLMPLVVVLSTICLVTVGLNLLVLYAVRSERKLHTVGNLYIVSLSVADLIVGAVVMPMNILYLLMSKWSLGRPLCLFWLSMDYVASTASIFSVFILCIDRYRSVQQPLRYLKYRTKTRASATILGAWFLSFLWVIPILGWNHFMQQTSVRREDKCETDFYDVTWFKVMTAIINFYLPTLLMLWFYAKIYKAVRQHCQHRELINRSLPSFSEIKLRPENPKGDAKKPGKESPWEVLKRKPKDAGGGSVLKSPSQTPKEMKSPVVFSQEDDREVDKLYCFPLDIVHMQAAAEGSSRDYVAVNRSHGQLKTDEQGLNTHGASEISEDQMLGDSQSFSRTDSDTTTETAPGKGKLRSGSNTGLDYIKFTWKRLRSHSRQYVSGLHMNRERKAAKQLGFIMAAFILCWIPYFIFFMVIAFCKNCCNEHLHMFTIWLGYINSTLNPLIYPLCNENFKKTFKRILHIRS
T2 sequence (Q9H3N8 whole entry): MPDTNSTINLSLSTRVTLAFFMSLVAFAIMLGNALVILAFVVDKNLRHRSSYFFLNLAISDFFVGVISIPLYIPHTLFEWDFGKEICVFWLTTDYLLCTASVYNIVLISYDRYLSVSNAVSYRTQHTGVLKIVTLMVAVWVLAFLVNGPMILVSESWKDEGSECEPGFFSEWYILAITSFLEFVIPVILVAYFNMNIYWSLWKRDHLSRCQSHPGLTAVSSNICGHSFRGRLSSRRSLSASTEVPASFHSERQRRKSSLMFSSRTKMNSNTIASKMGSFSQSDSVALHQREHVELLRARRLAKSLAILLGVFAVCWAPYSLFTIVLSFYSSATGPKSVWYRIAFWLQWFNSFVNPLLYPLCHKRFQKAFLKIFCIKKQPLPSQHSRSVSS

SMILES	EC50 (human H1)	EC50 (human H4)
CN1CCN(c2nc3cc(F)c(F)cc3n3nnnc23)CC1 [Example 190, 7,8-difluoro-4-(4-methylpiperazin-1-yl)tetrazolo[1,5-a]quinoxaline]	> 10 µM	< 10 µM
C=Cc1ccc2nc(N3CCNCC3)n3nc(C)nc3c2c1 [Example 138, 2-methyl-5-(piperazin-1-yl)-9-vinyl-[1,2,4]triazolo[1,5-c]quinazoline]	> 10 µM	< 10 µM
Cc1cn2c(n1)c(N1CCNCC1)nc1ccc(Cl)cc12 [Example 10, 8-Chloro-2-methyl-4-(piperazin-1-yl)imidazo[1,2-a]quinoxaline]	> 10 µM	> 10 µM
Clc1ccc2nc(OCC3CNC3)c3nncn3c2c1 [Example 75, 4-(azetidin-3-ylmethoxy)-8-chloro-[1,2,4]triazolo[4,3-a]quinoxaline]	> 10 µM	> 10 µM
Fc1cc2c(cc1C(F)(F)F)nc(N1CCNCC1)c1nncn12 [Example 43, 8-Fluoro-4-(piperazin-1-yl)-7-(trifluoromethyl)-[1,2,4]triazolo[4,3-a]quinoxaline]	> 10 µM	< 10 µM
Fc1cc2c(cc1C(F)(F)F)nc(N1CCNCC1)c1nnnn12 [Example 200, 8-fluoro-4-(piperazin-1-yl)-7-(trifluoromethyl)tetrazolo[1,5-a]quinoxaline]	> 10 µM	< 10 µM
CN1CCN(c2nc3ccc(C(F)(F)F)cc3c3cn(C)nc23)CC1 [Example 155, 2-Methyl-4-(4-methylpiperazinyl)-8-(trifluoromethyl)pyrazolo[3,4-c]quinoline]	> 10 µM	< 10 µM
CN(C)CCN(C)c1nc2ccc(Cl)cc2n2cnnc12 [Example 78, N^1-(8-chloro-[1,2,4]triazolo[4,3-a]quinoxalin-4-yl)-N^1,N^2,N^2-trimethylethane-1,2-diamine]	> 10 µM	> 10 µM
CN1CCN(c2nc3ccc(Cl)cc3c3nc(Cc4ccccc4)nn23)CC1 [Example 118, 2-Benzyl-9-chloro-5-(4-methylpiperazin-1-yl)-[1,2,4]triazolo[1,5-c]quinazoline]	> 10 µM	> 10 µM
Clc1ccc2nc(N3CCNCC3)c3ncoc3c2c1 [Example 142, 8-Chloro-4-piperazinyl-1,3-oxazolo[4,5-c]quinoline]	> 10 µM	< 10 µM
Fc1cc(Cl)cc2c1nc(N1CCNCC1)c1nncn12 [Example 196, 8-chloro-6-fluoro-4-(piperazin-1-yl)-[1,2,4]triazolo[4,3-a]quinoxaline]	> 10 µM	< 10 µM
CN1CCN(c2nc3ccc(C(F)(F)F)cc3n3ccnc23)CC1 [Example 177]	> 10 µM	< 10 µM
Cc1nc2c3cc(Cl)ccc3nc(N3CCN4CCCC4C3)n2n1 (stereo not drawn) [Example 245, 9-chloro-5-(hexahydropyrrolo[1,2-a]pyrazin-2(1H)-yl)-2-methyl-[1,2,4]triazolo[1,5-c]quinazoline]	< 10 µM	< 10 µM
Cc1nc2c3ccc(F)cc3nc(N3CCNCC3)n2n1 [Example 108, 8-Fluoro-2-methyl-5-(piperazin-1-yl)-[1,2,4]triazolo[1,5-c]quinazoline]	> 10 µM	> 10 µM
CCc1ccc2nc(N3CCNCC3)c3nncn3c2c1 [Example 91, 8-ethyl-4-(piperazin-1-yl)-[1,2,4]triazolo[4,3-a]quinoxaline]	> 10 µM	< 10 µM
CN1CCN(c2nc3cc(Cl)c(C(F)(F)F)cc3n3cnnc23)CC1 [Example 44, 7-Chloro-4-(4-methylpiperazin-1-yl)-8-(trifluoromethyl)-[1,2,4]triazolo[4,3-a]quinoxaline]	> 10 µM	< 10 µM
FC(F)(F)c1ccc2nc(N3CCNCC3)n3nc(C(F)(F)F)nc3c2c1 [Example 121, 5-(piperazin-1-yl)-2,9-bis(trifluoromethyl)-[1,2,4]triazolo[1,5-c]quinazoline]	> 10 µM	> 10 µM
Clc1ccc2nc(N3CCNCC3)c3nocc3c2c1 [Example 167, 8-Chloro-4-(piperazin-1-yl)isoxazolo[3,4-c]quinoline]	< 10 µM	< 10 µM

SMILES	EC50 (human H1)	EC50 (human H4)
Cc1nc2c(N3CCNCC3)nc3cc(F)c(Cl)cc3c2o1 [Example 217, 8-chloro-7-fluoro-2-methyl-4-(piperazin-1-yl)oxazolo[4,5-c]quinoline]	> 10 µM	< 10 µM
NC1CCN(c2nc3ccc(Cl)cc3n3cnnc23)CC1 [Example 81, 1-(8-chloro-[1,2,4]triazolo[4,3-a]quinoxalin-4-yl)piperidin-4-amine]	> 10 µM	> 10 µM
CC(C)c1nc2c3cc(Cl)ccc3nc(N3CCN(C)CC3)n2n1 [Example 116, 9-Chloro-2-isopropyl-5-(4-methylpiperazin-1-yl)-[1,2,4]triazolo[1,5-c]quinazoline]	> 10 µM	> 10 µM
Fc1cc(Cl)cc2nc(N3CCNCC3)c3nncn3c12 [Example 192, 7-chloro-9-fluoro-4-(piperazin-1-yl)-[1,2,4]triazolo[4,3-a]quinoxaline]	> 10 µM	> 10 µM
CCc1nnc2c(N3CCN(C)CC3)nc3ccc(Cl)cc3n12 [Example 86, 8-chloro-1-ethyl-4-(4-methylpiperazin-1-yl)-[1,2,4]triazolo[4,3-a]quinoxaline]	> 10 µM	< 10 µM
CC(C)c1nc2c3cc(Cl)ccc3nc(N3CCNCC3)n2n1 [Example 117, 9-Chloro-2-isopropyl-5-(piperazin-1-yl)-[1,2,4]triazolo[1,5-c]quinazoline]	> 10 µM	> 10 µM
CN1CCN(c2nc3cc(Cl)ccc3c3cccnc23)CC1 [Example 249, 8-chloro-5-(4-methylpiperazin-1-yl)benzo[f][1,7]naphthyridine]	< 10 µM	< 10 µM
CN1CCN(c2nc3ccc(C(F)(F)F)cc3c3conc23)CC1 [Example 218, 4-(4-methylpiperazin-1-yl)-8-(trifluoromethyl)isoxazolo[3,4-c]quinoline]	> 10 µM	< 10 µM
Clc1ccc2nc(N3CCNCC3)c3nccn3c2c1 [Example 8, 8-Chloro-4-(piperazin-1-yl)imidazo[1,2-a]quinoxaline]	> 10 µM	< 10 µM
Cc1nc2c(N3CCN(C)CC3)nc3ccc(C(F)(F)F)cc3c2o1 [Example 214, 2-methyl-4-(4-methylpiperazin-1-yl)-8-(trifluoromethyl)oxazolo[4,5-c]quinoline]	> 10 µM	< 10 µM
Clc1ccc2nc(N3CCNCC3)c3occc3c2c1 [Example 148, 8-Chloro-4-(piperazin-1-yl)furo[2,3-c]quinoline]	> 10 µM	< 10 µM
Cc1nc2c(N3CCNCC3)nc3cc(F)c(F)cc3c2o1 [Example 146, 7,8-difluoro-2-methyl-4-(piperazin-1-yl)oxazolo[4,5-c]quinoline]	< 10 µM	< 10 µM
CN1CCN(c2nc3c(F)c(C(F)(F)F)ccc3n3cnnc23)CC1 [Example 170, 6-fluoro-4-(4-methylpiperazin-1-yl)-7-(trifluoromethyl)-[1,2,4]triazolo[4,3-a]quinoxaline]	> 10 µM	< 10 µM
Cc1nc2c(N3CCNCC3)nc3ccc(Cl)cc3n2n1 [Example 164, 8-chloro-2-methyl-4-(piperazin-1-yl)-[1,2,4]triazolo[1,5-a]quinoxaline]	> 10 µM	< 10 µM
FC(F)(F)c1ccc2c(c1)nc(N1CCNCC1)c1nncn12 [Example 26, 4-(piperazin-1-yl)-7-(trifluoromethyl)-[1,2,4]triazolo[4,3-a]quinoxaline]	> 10 µM	> 10 µM
CN1CCN(c2nc3ccc(C(F)(F)F)cc3c3c[nH]nc23)CC1 [Example 157, 4-(4-Methylpiperazinyl)-8-(trifluoromethyl)pyrazolo[3,4-c]quinoline]	> 10 µM	< 10 µM
FC(F)(F)c1ccc2nc(N3CCNCC3)c3nccn3c2c1 [Example 178, 4-(piperazin-1-yl)-8-(trifluoromethypimidazo[1,2-a]quinoxaline hydrochloride]	> 10 µM	< 10 µM
CN1CCN(c2nc3ccc(Cl)cc3c3nncn23)CC1 [Example 14, 9-chloro-5-(4-methylpiperazin-1-yl)-[1,2,4]triazolo[4,3-c]quinazoline]	< 10 µM	> 10 µM
